# Like-named read-outs stand apart in the source and are kept apart here.
# Columns and labels:
# HeLa cells [1] = format: cell-based
# HeLa cells [2] = format: cell-based; remark: listed apart in the source
# GPP130 [3] = target: T1, GPP130 (Homo sapiens, UniProt O00461); format: cell-based
# T1 sequence (O00461 1-696): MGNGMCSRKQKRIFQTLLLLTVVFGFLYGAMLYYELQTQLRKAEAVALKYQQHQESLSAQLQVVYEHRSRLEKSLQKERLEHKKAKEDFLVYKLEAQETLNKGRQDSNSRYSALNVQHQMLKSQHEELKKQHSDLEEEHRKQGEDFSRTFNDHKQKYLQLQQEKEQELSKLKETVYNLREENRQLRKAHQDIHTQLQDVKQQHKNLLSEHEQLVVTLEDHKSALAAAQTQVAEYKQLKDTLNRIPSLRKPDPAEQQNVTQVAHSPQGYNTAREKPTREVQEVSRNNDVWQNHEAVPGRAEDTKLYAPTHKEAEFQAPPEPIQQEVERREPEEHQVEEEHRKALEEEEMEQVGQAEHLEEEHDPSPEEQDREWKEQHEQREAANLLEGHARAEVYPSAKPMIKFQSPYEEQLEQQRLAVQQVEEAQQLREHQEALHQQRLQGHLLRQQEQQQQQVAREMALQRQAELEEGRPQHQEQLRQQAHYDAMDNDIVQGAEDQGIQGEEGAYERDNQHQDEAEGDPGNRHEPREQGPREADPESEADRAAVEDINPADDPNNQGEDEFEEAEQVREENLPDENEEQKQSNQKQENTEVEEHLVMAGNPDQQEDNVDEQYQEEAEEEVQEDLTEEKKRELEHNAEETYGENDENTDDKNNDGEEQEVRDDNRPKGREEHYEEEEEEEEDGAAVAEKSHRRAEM
# [4] = test system: vesicular stomatitis virus G protein; format: cell-based
# mice [5] = settings: mouse, in vivo
# HeLa cells [6] = format: cell-based; remark: listed apart in the source
# HeLa cells [7] = format: cell-based; remark: listed apart in the source
# mice [8] = settings: mouse, in vivo, ip
# HeLa cells [9] = test system: HeLa cells
# [10] = in vivo; cited from earlier work
# GPP130 [11] = target: T1, GPP130; format: cell-based; remark: listed apart in the source
# mice [12] = settings: mouse, in vivo, ip, 100 mg/kg
# HeLa cells [13] = test system: HeLa cells; remark: listed apart in the source
smiles,measurement,setting,value
"[Cl][Mn][Cl] [Mn, MnCl2]",epidermal growth factor (EGF) internalization and degradation,HeLa cells [1],did not affect
same,cholera toxin B-subunit (CTxB) trafficking,HeLa cells [2],no difference between Mn-treated and control cells
same,GPP130 in cells after Mn,GPP130 [3],lacked GPP130
same,STxB reaching the ER (STxB-KDEL),GPP130 [3],STxB did not reach the ER
same,STxB trafficking from the cell surface to the Golgi,GPP130 [3],STxB accumulated in peripheral punctate structures resembling endosomes
same,ER-to-cell surface trafficking of vesicular stomatitis virus G protein,[4],did not affect
same,STx1-induced renal damage (kidney histology),mice [5],no STx1-induced renal damage
same,complete protection against lethal STx1 evident,mice [5],not
same,health and survival after lethal STx1,mice [5],all Mn-treated animals remained healthy and survived
same,protection against lethal STx1,mice [5],Complete protection
same,cellular STxB level (toxin degradation),HeLa cells [6],dramatic loss of STxB
same,time at which STxB is degraded in Mn-treated cells,HeLa cells [6],1 to 2 h
same,"localization or trafficking of GP73, TGN46 and Lamp2",HeLa cells [7],did not alter
same,apparent LD50,mice [8],125 mg/kg
same,paralysis and lethality,mice [8]; 100 mg/kg,Paralysis and lethality were not seen at any time
same,paralysis and lethality,mice [8]; 150 mg/kg,got paralyzed within a few hours and were then euthanized
same,paralysis and lethality,mice [8]; 250 mg/kg,got paralyzed within minutes and died
same,paralysis and lethality,mice [8]; 500 mg/kg,got paralyzed within minutes and died
same,cell viability (MTT),HeLa cells [9],did not affect cell viability
same,clearance from the system,[10],cleared from the system within hours
same,sorting of STxB into endosomal tubules,GPP130 [11],abolished
same,"body weight, locomotor activity and demeanor",mice [12],"significantly lost weight, exhibited a depressed, lethargic attitude accompanied with diminished locomotor activity"
same,"STx1 concentration, relative to the LD50, at which 50% cell death was not evident",HeLa cells [13],> 2000 fold
same,estimated protection factor,HeLa cells [13],3800
same,protection against STx-induced cell death,HeLa cells [13],3800 fold
same,viability with Mn by itself,HeLa cells [13],did not compromise viability

# Reference: patent publication US9439438B2 (priority 2011, dated 2016)
